# System: yeast genes (level of expressed mRNA)
# Assay: DNA chip analysis of expressed mRNA of yeast genes after 2 h culture with a toxic chemical substance
# Format: cell-based, Saccharomyces cerevisiae S288C
# Method: Yeast (Saccharomyces cerevtisiae S288C (α SUC2mal mel gap2 CUP1)) were cultured at 25° C. on YPD medium (yeast extract 1%, polypepton 2%, glucose 2%). One of toxic chemical substances was added to the cell at logarithmic growth phase, and the cell was further cultured for two hours. Cell was cultured without any chemical substance in the same condition, and was used as control. Concentrations of the chemical substances were defined to inhibit the growth of the yeast but not lead to death.
# After the completion of cultivation, the culture was centrifuged to collect the cells. To the cells, sodium acetate buffer (50 mM sodium acetate, 10 mM EDTA, 1% SDS) was added, and the mixture was shaken at 65° C. for five minutes, followed by returning to room temperature, and obtaining the supernatant, which procedure was repeated two times. To the supernatant, ½ amount of a solution of phenol/chloroform was added, and the mixture was centrifuged to give a supernatant, which was added with an equal amount of chloroform, and the mixture was centrifuged to give a supernatant. To the supernatant, an equal amount of isopropanol containing 0.3 M sodium acetate was added, and the mixture was allowed to stand at room temperature for 30 minutes, after which the mixture was centrifuged to give a sediment of the whole RNAs. Seventy % ethanol was added to the sediment, and the mixture was again centrifuged to give a sediment, which was then dried and dissolved in water. mRNA was isolated from the whole RNAs as followings. In view of the fact that a poly A chain is attached to the 3′ terminus of mRNA, a polynucleotide having a poly T structure which was immobilized on the surface of latex beads was used to trap the mRNA, and then the mRNA was washed and eluted with spine column (Oligotex-dT30<Super>mRNA Purification Kit, Takara). Reverse transcription of the mRNA was conducted with a reverse transcriptase (Super Script II Reverse Transcriptase; catalogue No. 18064-014, GibcoBRL) using fluorescence-labeled nucleotides to give cDNAs that were introduced with Cy3-dUTP or Cy5-dUTP during the reverse transcription.
# The labeled cDNAs were dissolved in TE buffer (10 mM Tris-HCl/1 mM EDTA, pH8.0), and the solution was dropped on the DNA chip containing the whole genes of yeast (DNA Chip Research Inc. Japan) so that the cDNAs were hybridized on the DNA chip at 65° C. for over 12 hours. The fluoresces intensity of the DNA chip was read with a scanner, and the ratio relative to the fluorescence intensity resulting from the absence of chemical substance was estimated as the following, which is shown in Tables 1 to 9: [formula]
# In the Tables, “Intensity” indicated in the rightmost column is a value of the level of expressed mRNA of each gene in control cells as divided by the average level of the expressions of the whole genes.
structure (smiles),measurement,setting,value
"CCCCC[C@H](O)CC(=O)CCc1ccc(O)c(OC)c1 [(13), gingerol]",The level of expressed mRNA in the presence of chemical substance/absence: YML029W,gene YML029W,2.0
same,The level of expressed mRNA in the presence of chemical substance/absence: YML041C,gene YML041C,1.2
same,The level of expressed mRNA in the presence of chemical substance/absence: YML079W,gene YML079W,1.6
same,level of expressed mRNA in the presence of chemical substance/in its absence,gene YML110C,1.8
same,The level of expressed mRNA in the presence of chemical substance/absence: YML118W,gene YML118W,1.7
same,The level of expressed mRNA in the presence of chemical substance/absence: YMR068W,gene YMR068W,1.4
same,The level of expressed mRNA in the presence of chemical substance/absence: YMR071C,gene YMR071C,1.3
same,level of expressed mRNA in the presence of chemical substance/in its absence,gene YMR105C,3.3
same,The level of expressed mRNA in the presence of chemical substance/absence: YMR114C,gene YMR114C,1.1
same,The level of expressed mRNA in the presence of chemical substance/absence: YMR115W,gene YMR115W,1.3
same,The level of expressed mRNA in the presence of chemical substance/absence: YMR160W,gene YMR160W,1.6
same,level of expressed mRNA in the presence of chemical substance/in its absence,gene YMR189W,0.9
same,The level of expressed mRNA in the presence of chemical substance/absence: YMR258C,gene YMR258C,1.6
same,level of expressed mRNA in the presence of chemical substance/in its absence,gene YMR271C,3.6
same,level of expressed mRNA in the presence of chemical substance/in its absence,gene YMR272C,1.2
same,level of expressed mRNA in the presence of chemical substance/in its absence,gene YMR296C,0.9
same,level of expressed mRNA in the presence of chemical substance/in its absence,gene YNL012W,2.9
same,The level of expressed mRNA in the presence of chemical substance/absence: YNL026W,gene YNL026W,1.7
same,level of expressed mRNA in the presence of chemical substance/in its absence,gene YNL037C,1.9
same,level of expressed mRNA in the presence of chemical substance/in its absence,gene YNL045W,2.6
same,The level of expressed mRNA in the presence of chemical substance/absence: YNL058C,gene YNL058C,0.6
same,The level of expressed mRNA in the presence of chemical substance/absence: YNL063W,gene YNL063W,1.5
same,level of expressed mRNA in the presence of chemical substance/in its absence,gene YNL104C,2.1
same,level of expressed mRNA in the presence of chemical substance/in its absence,gene YNL106C,0.9
same,level of expressed mRNA in the presence of chemical substance/in its absence,gene YNL130C,1.9
same,level of expressed mRNA in the presence of chemical substance/in its absence,gene YNL169C,1.7
same,The level of expressed mRNA in the presence of chemical substance/absence: YNL176C,gene YNL176C,0.6
same,The level of expressed mRNA in the presence of chemical substance/absence: YNL181W,gene YNL181W,1.8
same,The level of expressed mRNA in the presence of chemical substance/absence: YNL191W,gene YNL191W,0.6
same,The level of expressed mRNA in the presence of chemical substance/absence: YNL194C,gene YNL194C,1.5
same,The level of expressed mRNA in the presence of chemical substance/absence: YNL200C,gene YNL200C,1.1
same,The level of expressed mRNA in the presence of chemical substance/absence: YNL212W,gene YNL212W,1.3
same,level of expressed mRNA in the presence of chemical substance/in its absence,gene YNL231C,2.9
same,The level of expressed mRNA in the presence of chemical substance/absence: YNL253W,gene YNL253W,1.1
same,The level of expressed mRNA in the presence of chemical substance/absence: YNL265C,gene YNL265C,2.0
same,The level of expressed mRNA in the presence of chemical substance/absence: YNL276C,gene YNL276C,1.5
same,level of expressed mRNA in the presence of chemical substance/in its absence,gene YNL322C,0.8
same,level of expressed mRNA in the presence of chemical substance/in its absence,gene YNR002C,2.1
same,level of expressed mRNA in the presence of chemical substance/in its absence,gene YNR019W,2.1
same,level of expressed mRNA in the presence of chemical substance/in its absence,gene YNR033W,3.8
same,The level of expressed mRNA in the presence of chemical substance/absence: YNR051C,gene YNR051C,2.1
same,level of expressed mRNA in the presence of chemical substance/in its absence,gene YNR059W,2.4
same,The level of expressed mRNA in the presence of chemical substance/absence: YOL026C,gene YOL026C,1.2
same,The level of expressed mRNA in the presence of chemical substance/absence: YOL030W,gene YOL030W,1.7
same,level of expressed mRNA in the presence of chemical substance/in its absence,gene YOL058W,1.2
same,level of expressed mRNA in the presence of chemical substance/in its absence,gene YOL126C,2.6
same,level of expressed mRNA in the presence of chemical substance/in its absence,gene YOL143C,1.2
same,level of expressed mRNA in the presence of chemical substance/in its absence,gene YOL153C,2.9
same,level of expressed mRNA in the presence of chemical substance/in its absence,gene YOL157C,1.4
same,The level of expressed mRNA in the presence of chemical substance/absence: YOR022C,gene YOR022C,1.7
same,The level of expressed mRNA in the presence of chemical substance/absence: YOR087W,gene YOR087W,1.2
same,The level of expressed mRNA in the presence of chemical substance/absence: YOR088W,gene YOR088W,0.4
same,level of expressed mRNA in the presence of chemical substance/in its absence,gene YOR099W,1.6
same,level of expressed mRNA in the presence of chemical substance/in its absence,gene YOR130C,2.1
same,level of expressed mRNA in the presence of chemical substance/in its absence,gene YOR136W,1.5
same,The level of expressed mRNA in the presence of chemical substance/absence: YOR138C,gene YOR138C,1.8
same,The level of expressed mRNA in the presence of chemical substance/absence: YOR253W,gene YOR253W,0.5
